In ChEMBL document CHEMBL1201862, “PubChem BioAssay data set” (2004):
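Five compound concentrations were applied to cells in 96-well plates for 48 hours; endpoints were derived by simple linear interpolation of the resulting dose-response curve. The concentration for 50% growth inhibition is given as GI50.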 The source made the active and inactive calls. Rule as the data show it: active = GI50 up to about 1.1 µM and inactive = higher.

Assays:
Assay in all cases: inhibition of tumour cell growth, NCI panel, 48 h
TK-10 = system: TK-10
U-251 = system: U-251
SW-620 = system: SW-620
OVCAR-8 = system: OVCAR-8
CAKI-1 = system: CAKI-1
SK-OV-3 = system: SK-OV-3
HCT-15 = system: HCT-15
OVCAR-3 = system: OVCAR-3
RPMI-8226 = system: RPMI-8226
Malme-3M = system: Malme-3M
NCI-H460 = system: NCI-H460
SF-539 = system: SF-539
NCI-H226 = system: NCI-H226
UO-31 = system: UO-31
HT-29 = system: HT-29
OVCAR-4 = system: OVCAR-4

Structure (SMILES) | GI50 (TK-10) | GI50 (U-251) | GI50 (SW-620) | GI50 (OVCAR-8) | GI50 (CAKI-1) | GI50 (SK-OV-3) | GI50 (HCT-15) [µM] | GI50 (OVCAR-3) | GI50 (RPMI-8226) | GI50 (Malme-3M) | GI50 (NCI-H460) | GI50 (SF-539) | GI50 (NCI-H226) | GI50 (UO-31) | GI50 (HT-29) | GI50 (OVCAR-4)
COc1cc(/C=C/C(=O)c2sc(-n3nc(-c4ccccc4)cc3-c3ccccc3)nc2C)ccc1O | > 100 µM (inactive) | > 100 µM (inactive) | > 100 µM (inactive) | > 100 µM (inactive) | 6.64 µM (inactive) | > 100 µM (inactive) | 28.5 | > 100 µM (inactive) | > 100 µM (inactive) | > 100 µM (inactive) | > 100 µM (inactive) | > 100 µM (inactive) | > 100 µM (inactive) | > 100 µM (inactive) |  | 
O=C(CCc1cc(-c2ccco2)n(-c2ccc([N+](=O)[O-])cc2[N+](=O)[O-])n1)Nc1ccccc1 |  | > 100 µM (inactive) | > 100 µM (inactive) | > 100 µM (inactive) | > 100 µM (inactive) | > 100 µM (inactive) | > 100 |  | > 100 µM (inactive) | 32.8 µM (inactive) | > 100 µM (inactive) | > 100 µM (inactive) | > 100 µM (inactive) | > 100 µM (inactive) | > 100 µM (inactive) | > 100 µM (inactive)
Cc1cc(C)c(C(=O)OC(c2ccccc2)C(c2ccccc2)N2CCOCC2)c(C)c1 (configuration not stated) | > 100 µM (inactive) | > 100 µM (inactive) | > 100 µM (inactive) |  | > 100 µM (inactive) | > 100 µM (inactive) | > 100 | > 100 µM (inactive) | 6.01 µM (inactive) | > 100 µM (inactive) | > 100 µM (inactive) | > 100 µM (inactive) | > 100 µM (inactive) | > 100 µM (inactive) | > 100 µM (inactive) | 
O=C1OC(c2ccccc2)=N/C1=C/NC(Cc1c[nH]cn1)C(=O)O (configuration not stated) | > 100 µM (inactive) | > 100 µM (inactive) | > 100 µM (inactive) | > 100 µM (inactive) |  | > 100 µM (inactive) | > 100 | > 100 µM (inactive) | > 100 µM (inactive) | > 100 µM (inactive) | > 100 µM (inactive) | > 100 µM (inactive) | > 100 µM (inactive) | > 100 µM (inactive) | > 100 µM (inactive) | > 100 µM (inactive)
O=C1CCC2(c3ccc(F)cc3)Nc3ncccc3N12 (configuration not stated) | > 100 µM (inactive) | > 100 µM (inactive) | > 100 µM (inactive) | > 100 µM (inactive) | > 100 µM (inactive) |  | > 100 | > 100 µM (inactive) | > 100 µM (inactive) | > 100 µM (inactive) | > 100 µM (inactive) | > 100 µM (inactive) | > 100 µM (inactive) | > 100 µM (inactive) | > 100 µM (inactive) | > 100 µM (inactive)
Cc1ccc(S(=O)(=O)N2CCN(C=S)CC2)cc1 | > 100 µM (inactive) | > 100 µM (inactive) | > 100 µM (inactive) | > 100 µM (inactive) |  | > 100 µM (inactive) | > 100 | > 100 µM (inactive) |  | > 100 µM (inactive) | > 100 µM (inactive) | > 100 µM (inactive) |  | > 100 µM (inactive) | > 100 µM (inactive) | 
CC1=C(O)C(=O)C2C(=O)C1C(C)C2c1ccc(Cl)cc1 (configuration not stated) | > 100 µM (inactive) | > 100 µM (inactive) | > 100 µM (inactive) | > 100 µM (inactive) | > 100 µM (inactive) | > 100 µM (inactive) | > 100 | > 100 µM (inactive) | > 100 µM (inactive) | > 100 µM (inactive) |  | > 100 µM (inactive) | > 100 µM (inactive) | > 100 µM (inactive) | > 100 µM (inactive) | > 100 µM (inactive)
O=C(CO)CC(=O)C(=O)Nc1cccc(C(F)(F)F)c1 | > 100 µM (inactive) |  | > 100 µM (inactive) | > 100 µM (inactive) | > 100 µM (inactive) | > 100 µM (inactive) | > 100 | > 100 µM (inactive) | > 100 µM (inactive) | > 100 µM (inactive) | > 100 µM (inactive) | > 100 µM (inactive) | > 100 µM (inactive) | > 100 µM (inactive) | > 100 µM (inactive) | > 100 µM (inactive)
Cc1cc(=O)n(-c2cc3cccccc-3n2)[nH]1 | 7.31 µM (inactive) | 2.04 µM (inactive) | 3.73 µM (inactive) | 5.53 µM (inactive) |  | 6.31 µM (inactive) | 5.07 | 3.05 µM (inactive) | 8 µM (inactive) | 3.76 µM (inactive) | 3.4 µM (inactive) | 5.47 µM (inactive) | 12.1 µM (inactive) | 6.35 µM (inactive) | 13.5 µM (inactive) | 
O=C(CC1Sc2ccccc2NC1=O)Nc1cccc(Cl)c1 (configuration not stated) | 41.9 µM (inactive) | 30.4 µM (inactive) | 34.4 µM (inactive) | 26.2 µM (inactive) | 33 µM (inactive) |  | 40.6 | 27 µM (inactive) | 21.7 µM (inactive) | 55.2 µM (inactive) | 38.5 µM (inactive) | 72.9 µM (inactive) | 26.8 µM (inactive) | 28.8 µM (inactive) | 57.3 µM (inactive) | 44.8 µM (inactive)
CCOC(=O)NC(=O)c1cn(CCOC(=O)NCCCCCCNC(=O)OCCn2cc(C(=O)NC(=O)OCC)c(=O)[nH]c2=O)c(=O)[nH]c1=O |  | > 100 µM (inactive) | > 100 µM (inactive) | > 100 µM (inactive) | > 100 µM (inactive) | > 100 µM (inactive) | > 100 | > 100 µM (inactive) | > 100 µM (inactive) | > 100 µM (inactive) | > 100 µM (inactive) |  | > 100 µM (inactive) | > 100 µM (inactive) | > 100 µM (inactive) | > 100 µM (inactive)
CC12N=NNC1C(=O)NC2=O (configuration not stated) | > 100 µM (inactive) | > 100 µM (inactive) | > 100 µM (inactive) | > 100 µM (inactive) | > 100 µM (inactive) | > 100 µM (inactive) | > 100 | > 100 µM (inactive) | > 100 µM (inactive) |  | > 100 µM (inactive) | > 100 µM (inactive) | > 100 µM (inactive) | > 100 µM (inactive) | > 100 µM (inactive) | > 100 µM (inactive)
COC(=O)CCC(=O)Nc1cccc(C(F)(F)F)c1 | > 100 µM (inactive) | > 100 µM (inactive) | > 100 µM (inactive) | > 100 µM (inactive) | > 100 µM (inactive) | > 100 µM (inactive) | > 100 | > 100 µM (inactive) | > 100 µM (inactive) | > 100 µM (inactive) | > 100 µM (inactive) | > 100 µM (inactive) |  | > 100 µM (inactive) | > 100 µM (inactive) | > 100 µM (inactive)
CCCCCCC(=O)C/C(=N/NC(N)=S)C(=O)NC1C2CC3CC(C2)CC1C3 (configuration not stated) | > 100 µM (inactive) | > 100 µM (inactive) | > 100 µM (inactive) | > 100 µM (inactive) |  |  |  | > 100 µM (inactive) | > 100 µM (inactive) | > 100 µM (inactive) | > 100 µM (inactive) |  | > 100 µM (inactive) | > 100 µM (inactive) | > 100 µM (inactive) | > 100 µM (inactive)
Cc1cc2c(C)nn(Cc3ccc(Cl)cc3Cl)c2c(C#N)c1C | > 100 µM (inactive) | > 100 µM (inactive) | > 100 µM (inactive) | > 100 µM (inactive) |  | > 100 µM (inactive) | > 100 | > 100 µM (inactive) | > 100 µM (inactive) | > 100 µM (inactive) | 79.4 µM (inactive) | > 100 µM (inactive) | > 100 µM (inactive) | > 100 µM (inactive) | 78.5 µM (inactive) | 
S=C1SCC2CCCN12 (configuration not stated) | > 100 µM (inactive) | > 100 µM (inactive) | > 100 µM (inactive) | > 100 µM (inactive) | > 100 µM (inactive) | > 100 µM (inactive) | > 100 |  | > 100 µM (inactive) | > 100 µM (inactive) | > 100 µM (inactive) | > 100 µM (inactive) |  | > 100 µM (inactive) | > 100 µM (inactive) | > 100 µM (inactive)
CC(C)(C)[Si](C)(C)OC1C(=O)C[C@H]2CCCC[C@@H]12 (some centres not stated) | > 100 µM (inactive) | > 100 µM (inactive) | > 100 µM (inactive) | > 100 µM (inactive) | > 100 µM (inactive) | > 100 µM (inactive) | > 100 | > 100 µM (inactive) | > 100 µM (inactive) | > 100 µM (inactive) | > 100 µM (inactive) | > 100 µM (inactive) |  | > 100 µM (inactive) | > 100 µM (inactive) | > 100 µM (inactive)
NC1CCC[C@H]1O (some centres not stated) | > 100 µM (inactive) | > 100 µM (inactive) | > 100 µM (inactive) | > 100 µM (inactive) |  | > 100 µM (inactive) | > 100 | > 100 µM (inactive) | > 100 µM (inactive) | > 100 µM (inactive) | > 100 µM (inactive) | > 100 µM (inactive) | > 100 µM (inactive) | > 100 µM (inactive) | > 100 µM (inactive) | > 100 µM (inactive)
CC(C)(C)OC(=O)C#CC[C@H]1CCCC1/C=C/C(O)=C1/C(=O)NC(CCCNC(=O)OC(C)(C)C)C1=O (some centres not stated) | 31.9 µM (inactive) | 25.9 µM (inactive) | 38.5 µM (inactive) | 15.2 µM (inactive) | 38.8 µM (inactive) | 88.5 µM (inactive) |  | 31.8 µM (inactive) | 33.2 µM (inactive) | 21.3 µM (inactive) | 20.3 µM (inactive) | 26.4 µM (inactive) | 88.1 µM (inactive) | 33.7 µM (inactive) | 40.1 µM (inactive) | 33.5 µM (inactive)
